From US10098899B2, “Drug with activity against the herpes virus family” (priority 2010, dated 2018)

Experiments:
Herpes virus of type I = test: Antiviral activity in Vero cells, unaltered cells, herpes virus of type I; format: cell-based; conditions: 50 mg/1 of preparation; for Number of unaltered cells: non-infected reference 10000
Procedure: (§1) Determining Activity Against Herpes Viruses of Type 1 and 11.
(§2) Herpes simplex virus (strain EC) was grown in Vero cells cultured in MEM medium with the addition of 0.2% bovine serum and 50 mg/1 of the preparations under study.

[1] = system: type I herpes simplex virus (strain EC); test: Herpetic pneumonia in white mice: virus titer in lungs (titration on Vero cells); format: in vivo, white non-pedigree mice; conditions: for Virus titer in lungs of mice on day 3 after the infection: day 3 after infection, 50 mg/kg intragastrically, 24 h and 1 h prior to and 24 h and 48 h after infection
Procedure: Antiviral activity of the inventive substance was determined using the model of pneumonia in white mice caused by type I herpes simplex virus.
Herpes simplex virus of type I (strain EC) was accumulated in Vero cells cultured in MEM medium with the addition of 0.2% bovine serum, 50 μg/ml of gentamicin. Virus titration was performed on Vero cells cultured in 96-well plates. Results were recorded after a pronounced cytopathic effect (CPE) appeared in virus control. The degree of intactness of the cellular monolayer was assessed visually, virus titer was calculated as the reciprocal value of Briggs logarithm of the largest dilution of the source material that is still able to produce visually notable manifestations of CPE in the cell culture (CTD50).
For assessing the virus inhibiting action of the preparations, white non-pedigree mice weighing 12-15 g (“Rappolovo” farm, Leningrad Region) were infected intranasally under a light ether anaesthesia with the herpes simplex virus in the dosage of 106 (CTD50)/0.05 ml. The preparation under study was administered intragastrically in the dosage of 50 mg/kg of weight according to a medical-preventive scheme (24 h and 1 h prior to infection, and 24 h and 48 h after the animals were infected). On day 3 the lungs of the infected animals were removed, homogenized in the presence of 10-fold volume of phosphate buffer and then 10-fold dilutions from 10-1 to 10-6 were prepared thereof. Dilutions of the lungs homogenate were used for infecting the intact culture of Vero cells and for titration of virus progeny. Positive reference was represented by lungs of mice that instead of the studied preparation received physiological solution by intragastric administration, whereas negative reference was represented by lungs of mice that received aciclovir in the dosage of 50 mg/kg of weight according to the same scheme. Each experimental group consisted of 10 animals.

[2] = system: type I herpes simplex virus (strain EC); test: Herpetic pneumonia in white mice: histologic (morphometric) examination of lungs; format: in vivo, white non-pedigree mice
Herpes virus of type II = test: Antiviral activity in Vero cells, unaltered cells, herpes virus of type II; format: cell-based; conditions: for Number (%) of unaltered cells, percent / Number of unaltered cells: Herpes virus of type II, Vero cells, 50 mg/1 of preparation; for Number of unaltered cells: non-infected reference 10000
Procedure: as §1, §2

Compound	Number (%) of unaltered cells, percent (Herpes virus of type I)	Number of unaltered cells (Herpes virus of type I)	Virus titer in lungs of mice on day 3 after the infection [1] [Lg CTD50]	Area of an inflammation focus in section ([2]; term 2 days)	Number of inflammation foci in one animal ([2]; term 2 days)	Area of an inflammation focus in section ([2]; term 4 days)	Number of inflammation foci in one animal ([2]; term 4 days)	Area of an inflammation focus in section ([2]; term 6 days)	Number of inflammation foci in one animal ([2]; term 6 days)	Number (%) of unaltered cells, percent (Herpes virus of type II)	Number of unaltered cells (Herpes virus of type II)	virus-inhibitory activity at the model of herpetic pneumonia in vivo (in words) ([1]; compared with aciclovir at the same dosage)	antiviral activity compared with aciclovir (in words) (Herpes virus of type II; in particular against the herpes virus of type II)
Nc1nc2c(ncn2COCCO)c(=O)[nH]1 [Aciclovir, 2-amino-1,9-dihydro-9-[(2-hydroxyethoxy)methyl]-6H-purine-6-on, reference compound]	(65%)	7000	1.4 ± 0.34	55 ± 9.4	8	58 ± 14.7	3	24 ± 6.4	3	(70%)	7000		
(2,6-dichlorophenyl)amide salt of carbopentoxysulfanilic acid [The inventive substance]	(80%)	8000	1.0 ± 0.11	47 ± 7.3	3	49 ± 12.1	2	14 ± 5.5	1	(90%)	9000	statistically significant virus-inhibitory activity	significantly exceeds that of the aciclovir
